These results are taken from patent publication US5283193A, “Process for producing optically active α-substituted organic acid and microorganism and enzyme used therefor” (Asahi Kasei Kogyo K.K., priority 1988, dated 1994).

In the first test the test system is Nitrilase isolated from Acinetobacter sp. AK 226 strain. The experiment in a line: Substrate specificity of purified nitrilase (hydrolysis of nitriles to organic acid and ammonia).
Details: not given
For the molecule `N#CC(Br)CBr` (stereo not shown) [2,3-Dibromopropionitrile], the Relative activity is 90.3 ×10^2%.

On to `N#CC(N)c1ccccc1` (stereo not shown) [2-Phenylglycinonitrile], for which the Relative activity is listed as 0.000 ×10^2%.

On to `CC#N` [Acetonitrile], for which the Relative activity is 45.3 ×10^2%.

Turning to `C=CC#N` [Acrylonitrile], the Relative activity was 144 ×10^2%.

With `N#CCCl` [Chloroacetonitrile], the Relative activity is recorded as 108 ×10^2%.

As for `N#CCCCC#N` [Glutaronitrile], the Relative activity is listed as 50.9 ×10^2%.

For `N#CCO` [Hydroxyacetonitrile], the Relative activity is recorded as 11.4 ×10^2%.

For the molecule `C=C(C)C#N` [Methacrylonitrile], the Relative activity was 68.4 ×10^2%.

In the case of `N#Cc1cccnc1` [Nicotinonitrile], the Relative activity is reported as 52.7 ×10^2%.

On to `CC(C)CCC#N` [iso-Capronitrile], for which the Relative activity was 8.12 ×10^2%.

Turning to `N#Cc1cccc(Cl)c1` [m-Chlorobenzonitrile], the Relative activity was 68.9 ×10^2%.

`N#Cc1cccc([N+](=O)[O-])c1` [m-Nitrobenzonitrile]: the Relative activity is reported as 47.6 ×10^2%.

With `N#Cc1cccc(C#N)c1` [m-Phthalonitrile], the Relative activity is on record as 80.7 ×10^2%.

For `Cc1cccc(C#N)c1` [m-Tolunitrile], the Relative activity was 74.8 ×10^2%.

For the molecule `CCCC#N` [n-Butyronitrile], the Relative activity is listed as 17.4 ×10^2%.

Turning to `CCCCCC#N` [n-Capronitrile], the Relative activity is reported as 5.93 ×10^2%.

For `N#Cc1ccccc1F` [o-Fluorobenzonitrile], the Relative activity was 50.4 ×10^2%.

`Cc1ccccc1C#N` [o-Tolunitrile]: the Relative activity is 0.743 ×10^2%.

For `N#Cc1ccc(F)cc1` [p-Fluorobenzonitrile], the Relative activity is given as 83.9 ×10^2%.

On to `CC(C#N)c1ccccc1` (stereo not drawn) [α-Phenylpropionitrile], for which the Relative activity is on record as 0.534 ×10^2%.

As for Thiopheneacetonitrile, the Relative activity is 45.5 ×10^2%.

Staying with this test, now noted: racemic substrate.
For `CC(C)Cc1ccc(C(C)C#N)cc1` (stereo not shown), the “Reaction rate with the S isomer compared with the R isomer” value was “much higher”.
